Experimental findings from patent EP4741392A1, “1H-PYRAZOLO[4,3-C]PYRIDINE COMPOUND, AND COMPOSITION THEREOF AND USE THEREOF” (Shenzhen TargetRx Co., Ltd., priority 2023, dated 2025) are described below.

Bounds are passed on as bounds.

Common to all, as to assay: Kinase activity inhibition assay (HTRF TK Kit), selectivity
Holding throughout (type): biochemical
(TR-FRET usually uses a lanthanide donor and a delayed reading to cut background.)

One test concerns the target T1, ITK (Homo sapiens, UniProt Q08881).
T1 construct: purchased Carna 08-181
T1 sequence (Q08881 1-620): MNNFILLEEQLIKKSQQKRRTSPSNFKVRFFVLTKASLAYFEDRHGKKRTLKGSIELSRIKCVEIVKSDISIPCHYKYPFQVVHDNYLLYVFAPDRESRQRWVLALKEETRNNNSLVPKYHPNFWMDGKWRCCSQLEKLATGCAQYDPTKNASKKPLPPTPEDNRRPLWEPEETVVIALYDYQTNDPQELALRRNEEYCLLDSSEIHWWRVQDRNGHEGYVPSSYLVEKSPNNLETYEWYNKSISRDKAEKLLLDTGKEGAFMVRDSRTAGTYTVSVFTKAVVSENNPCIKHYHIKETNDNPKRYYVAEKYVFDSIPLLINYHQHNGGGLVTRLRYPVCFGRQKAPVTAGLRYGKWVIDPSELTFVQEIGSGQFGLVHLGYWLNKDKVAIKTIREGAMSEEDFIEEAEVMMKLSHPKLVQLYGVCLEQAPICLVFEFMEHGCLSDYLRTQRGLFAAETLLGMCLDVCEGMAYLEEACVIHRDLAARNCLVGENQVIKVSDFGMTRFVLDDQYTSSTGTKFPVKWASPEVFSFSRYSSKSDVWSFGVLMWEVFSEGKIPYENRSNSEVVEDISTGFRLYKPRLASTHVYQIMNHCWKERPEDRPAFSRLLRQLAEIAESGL
Summed up:
(§1)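 HTRF TK-substrate phosphorylation assay, set up on ice, then the kinase reaction ran at room temperature in 1% DMSO. Detection used streptavidin-XL665 plus TK antibody-cryptate for 1 h at RT, and the 665/620 nm ratio was read. IC50s came from a four-parameter nonlinear fit of % inhibition against log concentration.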

The target in the next test is T2, EGFR (Homo sapiens, UniProt P00533).
T2 construct: purchased Carna 08-115
Summed up: as §1

A further test addresses T3, TEC (Homo sapiens, UniProt P42680).
T3 construct: purchased Carna 08-182
T3 sequence (P42680 1-631): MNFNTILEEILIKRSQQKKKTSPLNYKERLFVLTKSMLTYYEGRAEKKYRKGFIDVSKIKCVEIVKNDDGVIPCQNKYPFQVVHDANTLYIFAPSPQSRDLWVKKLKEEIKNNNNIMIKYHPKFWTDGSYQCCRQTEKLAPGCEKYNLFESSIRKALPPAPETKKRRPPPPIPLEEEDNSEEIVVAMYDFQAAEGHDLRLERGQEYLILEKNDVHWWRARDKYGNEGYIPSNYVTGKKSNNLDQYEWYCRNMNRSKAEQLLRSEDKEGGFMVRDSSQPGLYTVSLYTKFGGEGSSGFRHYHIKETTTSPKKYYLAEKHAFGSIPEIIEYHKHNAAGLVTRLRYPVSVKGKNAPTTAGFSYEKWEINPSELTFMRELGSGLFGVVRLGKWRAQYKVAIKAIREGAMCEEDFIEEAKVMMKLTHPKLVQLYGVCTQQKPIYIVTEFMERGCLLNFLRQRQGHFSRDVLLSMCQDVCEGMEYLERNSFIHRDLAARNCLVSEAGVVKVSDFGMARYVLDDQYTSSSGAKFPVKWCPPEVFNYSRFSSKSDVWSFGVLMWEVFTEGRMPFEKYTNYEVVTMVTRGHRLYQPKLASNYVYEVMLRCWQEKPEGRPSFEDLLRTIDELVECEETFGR
Summed up: as §1

One may read the IC50 as the concentration needed to halve the response being measured. `COc1ccc(F)cc1C(=O)NCc1ccc(-c2nc(C3CCOCC3)cc3[nH]nc(N)c23)cc1` [Example 115, N-(4-(3-amino-6-(tetrahydro-2H-pyran-4-yl)-1H-pyrazolo[4,3-c]pyridin-4-yl)benzyl)-5-fluoro-2-methoxybenzamide]: the figures for the IC50 at ITK, at EGFR and at TEC were > 500 nM, 50 to 500 nM and 50 to 500 nM, respectively.
Take `COc1ccc(F)cc1C(=O)NCc1ccc(-c2nc([C@H]3CC[C@H](CO)CC3)cc3[nH]nc(N)c23)cc1` [Example 117, N-(4-(3-amino-6-((1r,4r)-4-(hydroxymethyl)cyclohexyl)-1H-pyrazolo[4,3-c]pyridin-4-yl)benzyl)-5-fluoro-2-methoxybenzamide]: the half-maximal inhibitory concentration (IC50) at ITK was > 500 nM; at EGFR, 5 to 50 nM; at TEC, 50 to 500 nM.
For the compound “N-(4-(3-amino-7-(1-(difluoromethyl)-1H-pyrazol-3-yl)-1H-pyrazolo[4,3-c]pyridin-4-yl)benzyl)-5-fluoro-2-methoxybenzamide [Example 29]”, the half-maximal inhibitory concentration (IC50) on ITK fell in the range of 50 to 500 nM; on EGFR, 5 to 50 nM; on TEC it was 5 to 50 nM.
